Source: patent publication US11713318B2, “Short conjugated oligoelectrolytes and uses thereof” (The Regents Of The University Of California, priority 2018, dated 2023)
Read-outs that look alike come from different tables or passages of the source.

Tests used:
[1] = test system: S. Typhimurium; assay: MIC panel of pathogens, Table 4; assay type: cell-based; conditions: Salmonella enterica
[2] = test system: E. coli; assay: MIC panel of pathogens, Table 4; assay type: cell-based; conditions: Escherichia coli
Description: (§1) The minimum inhibitory concentration (MIC) was determined according to the Clinical and Laboratory Standards Institute (CLSI) guidelines by broth dilution. […] MIC values were derived after 20 h incubation, and were the result of at least 6 independent determinations.

[3] = test system: S. flexneri; assay: MIC panel of pathogens, Table 4; assay type: cell-based; conditions: Shigella flexneri
Description: as §1

[4] = test system: P. aeruginosa 1674623 (MDR); assay: MIC against resistant strains, Tables 5a-5d; assay type: cell-based; conditions: Pseudomonas aeruginosa, n = 3
Procedure, shortened: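 Antibacterial activity toward hospital-associated resistant strains, scored as the lowest concentration preventing growth with the shared MIC protocol or an analogous one.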

[5] = test system: primary human hepatocytes; assay: Cytotoxicity tested by Eurofins Pharma Discovery Services; assay type: cell-based; conditions: Hepatocyte, data provided by Eurofins, read-out: IC50
[6] = test system: S. pneumoniae D39; assay: MIC panel of pathogens, Table 4; assay type: cell-based; conditions: Streptococcus pneumoniae
[7] = test system: Hep G2 cells; assay: Cytotoxicity tested by Eurofins Pharma Discovery Services; assay type: cell-based; conditions: Homo sapiens, HepG2; Hep G2; data provided by Eurofins; read-out: IC50
[8] = test system: E. coli K12 (ATCC 47076); assay: MIC broth microdilution method, Table 3; conditions: Escherichia coli, ATCC47076
[9] = test system: Y. pseudotuberculosis; assay: microbe, parasite or virus in culture; assay type: cell-based; conditions: Yersinia pseudotuberculosis
[10] = test system: P. aeruginosa; assay: MIC panel of pathogens, Table 4; assay type: cell-based; conditions: Pseudomonas aeruginosa
[11] = test system: K pneumoniae (clinical isolate); assay: MIC panel of pathogens, Table 4; assay type: cell-based; conditions: clinical isolate from Cottage Hospital
[12] = test system: N. gonorrhoeae; assay: MIC panel of pathogens, Table 4; assay type: cell-based; conditions: Neisseria gonorrhoeae
[13] = test system: HRPTEpiC; assay: Cytotoxicity tested by Eurofins Pharma Discovery Services; assay type: cell-based; conditions: data provided by Eurofins, read-out: IC50
[14] = test system: S. pneumoniae Daw 1; assay: MIC panel of pathogens, Table 4; assay type: cell-based; conditions: Streptococcus pneumoniae, DAW1
[15] = test system: A. baumannii; assay: MIC panel of pathogens, Table 4; assay type: cell-based; conditions: Acinetobacter baumannii
[16] = Cytotoxicity, MTT assay; assay type: cell-based; conditions: at the concentration given as IC50 bound, read-out: cell viability at the highest or lowest test concentration
Procedure, shortened: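 Cells seeded at 5000/well (NIH 3T3) or 10000/well (Hep G2, J774, RAW264.7) in DMEM+10% FBS, incubated overnight, then exposed 24 h to 2-fold serial dilutions (9 concentrations, six replicates each). MTT added for 4 h, formazan dissolved in DMSO, A570 read. Viability expressed as blank-corrected absorbance relative to medium-only control.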

| SMILES | MIC [1] [mg/L] | MIC [2] [mg/L] | MIC [3] [mg/L] | MIC [4] [mg/L] | IC50 [5] [mg/L] | MIC [6] [mg/L] | IC50 [7] [mg/L] | MIC [8] [mg/L] | MIC [9] [mg/L] | MIC [10] [mg/L] | MIC [11] [mg/L] | MIC [12] [mg/L] | IC50 [13] [mg/L] | MIC [14] [mg/L] | MIC [15] [mg/L] | viability at 24 h ([16]; human, Hep G2 (ATCC HB-8065) cells, Hep G2) [%] | viability at 24 h ([16]; mouse, J774 (ATCC TIB-67) cells) [%] | viability at 24 h ([16]; mouse, NIH 3T3 (ATCC CRL-1658) cells, NIH 3T3) [%] |
| --- | --- | --- | --- | --- | --- | --- | --- | --- | --- | --- | --- | --- | --- | --- | --- | --- | --- | --- |
| CCCCCC[N+](C)(C)CCCCCCOc1cc(/C=C/c2cc(OCCCCCC[N+](C)(C)CCCCCC)cc(OCCCCCC[N+](C)(C)CCCCCC)c2)cc(OCCCCCC[N+](C)(C)CCCCCC)c1 [Formula E] | 2 | 2 | 2 | 8 | 13.2 | 4 | 5.6 | 4 | 1 | 8 | 4 | 0.5 | 2.6 | 8 | 4 | – | – | – |
| C[N+](C)(C)CCCCOc1cc(/C=C/c2ccc(/C=C/c3cc(OCCCC[N+](C)(C)C)cc(OCCCC[N+](C)(C)C)c3)cc2)cc(OCCCC[N+](C)(C)C)c1.[I-].[I-].[I-].[I-] [Formula F] | – | – | – | > 64 | > 324 | – | > 324 | 32 | – | – | – | – | 79.2 | – | – | 100 | 51 | 56.2 |
